# Assay results: PMC3169410 (Acta Crystallographica Section F: Structural Biology and …, 2011)
# Where two headings read alike, the source gives them in different places.
# Target: T1, BrabA.11339.a (Brucella abortus, UniProt Q2YQ74)
# T1 construct: gene BAB1_1016
# Conditions: Mn2+ dinuclear active site at dimer interface
# T1 sequence (Q2YQ74 2-272 limits assumed): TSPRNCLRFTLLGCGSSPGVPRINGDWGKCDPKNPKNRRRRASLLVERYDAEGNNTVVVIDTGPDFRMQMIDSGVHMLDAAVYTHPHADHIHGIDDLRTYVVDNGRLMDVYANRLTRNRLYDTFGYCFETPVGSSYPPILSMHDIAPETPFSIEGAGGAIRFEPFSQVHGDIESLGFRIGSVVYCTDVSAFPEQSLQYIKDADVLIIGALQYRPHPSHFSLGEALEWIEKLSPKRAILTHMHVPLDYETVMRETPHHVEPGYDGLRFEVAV
SMILES,X-ray crystallography (AMP found in cocrystals grown with 1 mM AMPPNP and 2 mM MgCl2 (1.7 A and 1.6 A)),"X-ray crystallography (GMP copurified from E. coli, partially occupied (3md7, 1.27 A), full density in cocrystal with 1 mM GMPPNP and 2 mM MgCl2 (3py6, 1.7 A))"
Nc1ncnc2c1ncn2[C@@H]1O[C@H](COP(=O)(O)O)[C@@H](O)[C@H]1O [AMP],"very solid electron density could be observed for GMP and AMP, respectively",
Nc1nc2c(ncn2[C@@H]2O[C@H](COP(=O)(O)O)[C@@H](O)[C@H]2O)c(=O)[nH]1 [GMP],,"In the native structure, a partially occupied GMP molecule can be observed in the immediate proximity"
